Measured values published in article PMC4325551, “Inhibition of Rat 5α-Reductase Activity and Testosterone-Induced Sebum Synthesis in Hamster Sebocytes by an Extract of Quercus acutissima Cortex” (Evidence-based Complementary and Alternative Medicine : eCAM, 2015).

What was measured:
[1] = test system: primary hamster sebocytes (Ha-SE); assay: insulin-induced sebum synthesis (lipogenesis) assay in hamster sebocytes; type: cell-based; conditions: 10 and 30 μmol/L; 10 μg/mL insulin; 8 days
Description: (§1) Primary hamster sebocytes (Ha-SE) were purchased from Kurabo Industries (Osaka, Japan) and maintained in a culture medium containing […] epidermal growth factor (EGF), 2% (v/v) human serum (HS), 8% (v/v) heat-inactivated fetal bovine serum (FBS) (Kurabo Industries), and a cocktail of penicillin G and streptomycin (Sigma-Aldrich). All assays using Ha-SE cells were performed between the 5th and 6th passage. For the study dealing with sebum synthesis, a sebum detecting kit (Kurabo industries) was used. […] The amount of sebum synthesized was evaluated by measuring lipid production and cell growth according to the manufacturer's instructions. That is, the lipid in sebaceous cells was stained with Oil Red O, extracted in 100% isopropanol, and quantified by a spectrometer at 520 nm. The cell growth was measured using XTT reagent (Biological Industries, Beit Haemek, Israel). The lipogenesis was calculated following the formula as relative sebum synthesis per cell number: lipogenesis = A/B, where A = OD 520 nm of 200 μL extract solution of 300 μL 100% isopropanol for extract of Oil red O dye and B = OD 465/630 nm of 200 μL of 450 μL culture fluids containing XTT reagent following incubation for 30 min. […]

[2] = test system: primary hamster sebocytes (Ha-SE); assay: testosterone-induced sebum synthesis (lipogenesis) assay in hamster sebocytes; type: cell-based; conditions: 10 and 30 μmol/L; 10 μmol/L testosterone; 8 days
Description: as §1

[3] = test system: human intestinal epithelial Caco-2 cells; design: method as in PMID 16890919, PMID 16580640; conditions: transport inhibited by phlorizin (SGLT-1 inhibitor); ref [34], [35]; cited from earlier work
[4] = biological target: T1, rat liver microsomal 5α-reductase (Rattus norvegicus, UniProt P24008); assay: 5α-reductase assay using rat liver microsomes (testosterone metabolism, HPLC and TLC); type: biochemical; conditions: for Inhibitory activity on 5α-reductase (% of control): mean ± SEM, N = 3
T1 construct: The reaction was started with the addition of liver microsomes (20 μg protein); from tissue; host or cells: liver microsomes of male Sprague–Dawley rats
T1 sequence (P24008 1-259): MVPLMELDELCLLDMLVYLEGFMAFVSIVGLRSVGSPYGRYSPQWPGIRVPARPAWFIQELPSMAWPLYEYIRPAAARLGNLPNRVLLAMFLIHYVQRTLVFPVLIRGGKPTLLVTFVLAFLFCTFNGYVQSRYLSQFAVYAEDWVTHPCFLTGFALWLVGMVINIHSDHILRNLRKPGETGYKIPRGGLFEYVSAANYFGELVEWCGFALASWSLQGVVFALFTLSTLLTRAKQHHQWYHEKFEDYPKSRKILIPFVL
Description: Rat liver microsomes were prepared by the method of Lee et al.. Male Sprague–Dawley rats (body weight, 300 to 320 g; Clea Japan, Tokyo, Japan) were fasted overnight to decrease the concentration of liver glycogen and then sacrificed. The liver was excised and washed in ice-cold homogenizing buffer containing 0.32 mol/L sucrose, 1 mmol/L dithiothreitol (Wako Pure Chemical Industries), and 20 mmol/L potassium phosphate, pH 6.5. The following procedures were all carried out at 4°C. The tissue was minced with a pair of scissors and then homogenized in homogenizing buffer using a Potter-Elvehjem grinder. The homogenate was then centrifuged at 10 000 g for 10 min. The resulting pellet was washed with two pellet volumes of homogenizing buffer and centrifuged again. The supernatants from the two centrifugations were combined and further centrifuged at 105 000 g for 1 h. The resulting pellet (microsomes) was suspended in homogenizing buffer and centrifuged again. The microsomes were resuspended in homogenizing buffer. The microsome suspension was divided into small aliquots and stored at −80°C. The microsomes were diluted with 40 mmol/L potassium phosphate, pH 6.5, immediately before use. Unlike human liver, rat liver microsomes have the 5α-R1 but not the 5α-R2 isoform.
Briefly, the reaction solution was preincubated with or without a test sample in 1 mmol/L dithiothreitol, 40 mmol/L potassium phosphate, pH 6.5, 100 μmol/L NADPH (Oriental Yeast, Tokyo, Japan), and 3.5 μmol/L testosterone (Wako Pure Chemical Industries) in a final volume of 0.5 mL for 20 min at room temperature. The reaction was started with the addition of liver microsomes (20 μg protein). After incubation at 37°C for 30 min, the reaction solution was extracted with 2 mL ethyl acetate. The ethyl acetate phase (upper phase) was transferred to a tube and evaporated using a centrifugal concentrator (Tomy Seiko, Tokyo, Japan). Testosterone and the metabolites were measured by two chromatography methods, HPLC (Shimadzu, Kyoto, Japan) and TLC.
The residue was dissolved in acetonitrile and analyzed using the HPLC system. The reverse-phase HPLC analysis was performed on a C18 column (3.0 × 150 mm, GL Science, Japan) at a column oven temperature of 50°C and UV detection of 240 nm. The isocratic mobile phase of acetonitrile/water (50 : 50, v/v) was flowed at 0.4 mL/min through the column.
To detect the steroids by TLC, the residue containing steroids was taken up in ethanol and chromatographed on a TLC plate (Silica gel 60 F254, Merck, Darmstadt, Germany), using ethyl acetate-hexane (1 : 1, v/v) as the developing solvent system at room temperature. Testosterone, (Tokyo Chemical Industry Co., Tokyo, Japan) and 5α-androstane-3α,17β-diol (Sigma-Aldrich) were applied to TLC as androgen standards. The plate was exposed to 10% sulfuric acid using an atomizer and then heated on a hot plate. The fluorescent signals were visualized by irradiation of UV light at 302 nm using a ChemiDoc XRS Plus (BIO-RAD, Hercules, CA).

[5] = test system: primary hamster sebocytes (Ha-SE); assay: cell cytotoxicity (XTT) in undifferentiated hamster sebocytes; conditions: 24 h with BK (10, 30 μg/mL) or pentagalloyl glucose (10, 30 μmol/L) in the presence of EGF
Description: Four Figures and Two Tables
Hamster-derived sebaceous gland cells (Ha-SE) were precultured until confluent in the presence of 10 ng/mL epidermal growth factor (EGF), and further cultured with 10, 30 […]
vehicle in the presence of EGF. Twenty four hours later, cell cytotoxicity was measured […]
Fig. S2. Bioconversion of exogenous dihydrotestosterone to 5α-androstane-3,17-diol by rat liver microsomal enzymes […]
min in the presence or absence of rat liver microsomes (40 μg/mL) and the co-factors.
The metabolites were extracted with ethyl acetate after incubation, and analyzed by TLC. All androgen standards were applied at 0.1 μg/μL/spot. T.: testosterone, DHT: dihydrotestosterone, A.diol: 5α-androstane-3α,17β-diol

inhibition of 5α-reductase activity ([4]; at 10 and 100 μmol/L): more than 50%
Inhibitory activity on 5α-reductase (% of control) ([4]; test sample 0.1 μmol/L, testosterone 3.5 μmol/L, 30 min, rat liver microsomes 40 μg/mL, HPLC): 5.4 ± 1.3 % of control
Inhibitory activity on 5α-reductase (% of control) ([4]; test sample 1 μmol/L, testosterone 3.5 μmol/L, 30 min, rat liver microsomes 40 μg/mL, HPLC): 36.1 ± 6.5 % of control
Inhibitory activity on 5α-reductase (% of control) ([4]; test sample 10 μmol/L, testosterone 3.5 μmol/L, 30 min, rat liver microsomes 40 μg/mL, HPLC): 83.5 ± 1.3 % of control
Inhibitory activity on 5α-reductase (% of control) ([4]; test sample 100 μmol/L, testosterone 3.5 μmol/L, 30 min, rat liver microsomes 40 μg/mL, HPLC): 107.9 ± 2.2 % of control
IC50 ([4]; testosterone 3.5 μmol/L, 30 min, rat liver microsomes 40 μg/mL, HPLC): 2500 nM
Structure (SMILES): O=C(OC[C@H]1O[C@@H](OC(=O)c2cc(O)c(O)c(O)c2)[C@H](OC(=O)c2cc(O)c(O)c(O)c2)[C@@H](OC(=O)c2cc(O)c(O)c(O)c2)[C@@H]1OC(=O)c1cc(O)c(O)c(O)c1)c1cc(O)c(O)c(O)c1 [Pentagalloyl glucose, 1,2,3,4,6-penta-O-galloyl glucose]
insulin-induced lipogenesis [1]: significantly downregulated
testosterone-induced lipogenesis [2]: significantly downregulated
transport across Caco-2 monolayer [3]: crosses a monolayer
cell metabolic activities [5]: not changed compared with the vehicle control
